Measured values: patent US12448388B2, “PRMT5 inhibitors and uses thereof” (Gilead Sciences, Inc., priority 2023, dated 2025)
≈ marks a conversion by molar mass, not a printed value. Where two headings read alike, the source gives them in different places.

What was measured:
[1] = system: HCT116 MTAP-deleted cell lines; experiment: Cell viability assay (CellTiter-Glo, 7 days), HCT116 MTAP-deleted; assay type: cell-based; conditions: for Selectivity: HCT116 WT CC50 versus HCT116 MTAP^del CC50; for plasma-adjusted CC50 (paCC50): paCC50 = CC50-HCT116-MTAP^del * (% free CCM/% free human plasma); for CC50: Homo sapiens, HCT116 MTAP-deleted
Method in brief: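 Read-out was CellTiter-Glo luminescence after a 7-day incubation (37 °C, 5% CO2) of HCT116 cells, MTAP-deleted or WT, on dose-response compound plates. CC50 values come from each line; where marked *, selectivity is overstated because poor solubility impaired the WT CC50 measurement.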

[2] = Cell viability assay (CellTiter-Glo, 7 days), HCT116 WT; assay type: cell-based; conditions: human, HCT116 WT cells, 7 days of treatment, CTG
Method: Control compounds were analyzed in parallel each time for quality control. In Brief, on Day -1, a serial dilution of stock compounds in DMSO was performed using BioMek liquid handlers and dispensed using Echo acoustic dispenser into 384 well plates. Both tool compounds and sample compounds were spotted in the same plate for a dose response of PRMT5 inhibitors. Compound plates were stored as frozen until the cells were ready for seeding. […] After equilibrating the plate in room temperature, the cells were incubated for 7 days inside the sealed incubator set at 37° C. with 90% humidity and 5% CO2. On Day 7, the viability of cells was measured using a CTG assay kit (CellTitre-Glo;Promega cat no. G7573). Shortly, 40 μl per well of luminescent cell viability assay reagent were dispensed using EL460 liquid dispenser 5 μl cassette. CTG luminescence signal was measured using an EnVision plate reader (PerkinElmer) in accordance with manufacturer's instruction. […] Selectivity with * is artificially high due to limited solubility of the compound hampering accurate measurement of WT CC50.

[3] = MDR1/BCRP assay: permeability in cPgp-KO-MDCK-WT cells; assay type: in vitro ADME; conditions: dog, pH 7.4
Method: The cells were maintained in an incubator at 37° C., 90% humidity, and 5% CO2 until reaching confluence over 5 days in 96-well transwell plates. Experiments were conducted using an HBSS donor buffer (Invitrogen) containing 10 mM HEPES and 15 mM glucose, adjusted to pH 7.4. The receiver well contained HBSS buffer supplemented with 1% BSA, 10 mM HEPES, and 15 mM glucose, and the pH was adjusted to 7.4. TEER values were measured to assess membrane integrity after an initial equilibration with BSA-free transport buffer for 15 minutes. The experiment was started by adding dosing solutions containing test compounds at 1 μM. Cells were dosed on the apical (A) side or basolateral (B) side at 100 μl and 200 μl, respectively, to determine forward (A to B) and reverse (B to A) permeability. At the 2-hour time point, 50 μl samples were collected from the receiver compartment. Each compound was tested in 2 separate replicate wells for each condition. All samples were immediately collected into plates, and 50 μL of acetonitrile was added. Subsequently, 350 μl of 30:70 methanol: acetonitrile containing internal standard was added to precipitate proteins and stabilize the test compounds. To test for non-specific binding and compound instability, the total amount of the drug was quantified at the end of the experiment and compared to the material present in the original dosing solution as a percentage of the recovery. All samples were analyzed by LC-MS/MS using electrospray ionization.
The apparent permeability, Papp, and % recovery were calculated as follows: […]

[4] = PBS solubility (kinetic solubility from DMSO stocks); assay type: physicochemical; conditions: 22 °C, aqueous buffer, kinetic from dmso stock; 1x PBS pH 7.4, 1.0% DMSO, 24-hour incubation at ambient temperature
Method: Buffer Preparation: 1×PBS, 7.4: Phosphate Buffered Saline solution 10×, PBS (Fisher Bioreagent, part number BP399-500) 50 mL was added to approximately 450 mL HPLC grade H2O. The volume of the solution was then adjusted to 500 mL for a total dilution factor of 1:10 and a final PBS concentration of 1×. The pH of the final solution was measured and found to be 7.4.
The final DMSO Concentration is 1.0% and maximum theoretical compound concentration is 100 μM (assuming stock concentration of 10 mM). The filter plate was sealed. Following 24-hour incubation at ambient temperature (20.8-24.0° C.), the samples were vacuum filtered, and the filtrates were collected in a 96 well polypropylene plate for analysis. The collection plate was sealed for analysis. Filtrates were injected into the nitrogen detector for quantification on Analiza's Automated Discovery Workstation. The results are reported here in both μM and μg/mL.
Calculation of Results: The equimolar nitrogen response of the detector is calibrated using standards which span the dynamic range of the instrument from 0.08 to 4500 μg/ml nitrogen. The filtrates were quantified with respect to this calibration curve. The calculated solubility values are corrected for background nitrogen present in the DMSO, and the media used to prepare the samples. All reported values for compounds containing adjacent nitrogen atoms in a ring structure should be increased by ˜25%. […] The solubility results presented assume that the samples were free of nitrogen containing impurities and are stable under the assay conditions.

[5] = Pharmacokinetics in cassette in male Sprague-Dawley rats for Kp measurement; assay type: in vivo; conditions: 1 mg/kg, intravenous
Method: E.1 Test Animal: Male Sprague-Dawley Rats (225-300 g) with Indwelling Bilateral Jugular Vain Cannula (JVC/JVC) or Single Jugular Vein Cannula (JVC)
E.2 Pharmaceutical Formulation and Administration
Test compound was dissolved in the vehicle of 10% DMSO, 10% ethanol, 40% polyethylene glycol 300, and 40% propylene glycol to get 1 mg/mL test compound solution. The compound was administered by intravenous administration at a dose of 1 mL/kg. Fasting was not required.
• Anticoagulant: K2EDTA • Volume: approximately 225 μL blood at each bleed • Jugula vein via syringe and needle or another method (non-terminal samples) or exsanguination (cardiac puncture) under isoflurane (or CO2 inhalation if isoflurane is unavailable) anesthesia (terminal time points). Blood samples were collected into K2EDTA tubes • Tissue collection and processing: following the terminal blood collection, the brain and CSF were collected from each animal.

[6] = HCT-116, 168 h, 7 days of treatment, CTG, read-out: CC50-HCT116-MTAP^del
[7] = HCT-116, cell viability, class symbols, read-out: CC50
[8] = HCT-116, cell viability assay, class symbols, read-out: CC50
[9] = brain Kp = [brain]/[plasma], rat, read-out: Rat brain Kp
[10] = brain Kpu,u = Kp * (plasma free/rat brain free), read-out: Rat brain Kpu,u

| SMILES | Selectivity [1] | plasma-adjusted CC50 (paCC50) ([1]; HCT-116) | CC50 [1, 6] | CC50 at 7 days [2] | Papp A→B at 2 h, 1 µM [3] | solubility at 24 h [4] | CC50 [1, 7] | CC50 [1, 8] | Kp [5, 9] | Kp [5, 10] |
| --- | --- | --- | --- | --- | --- | --- | --- | --- | --- | --- |
| Cc1ncc2c(N)nc3cnc(C(=O)N4CC[C@H]5C[C@@H]4c4ccc(OC(F)(F)F)cc4O5)cc3n12 [Ff-698, (4-amino-1-methylimidazo[1,5-a]pyrido[3,4-e]pyrazin-8-yl)((2S,6R)-9-(trifluoromethoxy)-3,4-dihydro-2H-2,6-methanobenzo[b][1,5]oxazocin-5(6H)-yl)methanone] | 96 | 295 nM | 15 nM | 1440 nM | 11.4 ×10⁻⁶ cm/s | < 1 µM |  |  |  |  |
| Cc1ncc2c(N)nc3ccc(C(=O)N4CCC[C@@H]5Oc6cc(C(F)(F)F)ccc6[C@@H]54)cc3n12 [Ff-345, (4-amino-1-methylimidazo[1,5-a]quinoxalin-8-yl)((4aS,9bS)-7-(trifluoromethyl)-3,4,4a,9b-tetrahydrobenzofuro[3,2-b]pyridin-1(2H)-yl)methanone] | 113 |  | 32 nM | 3620 nM | 10.2 ×10⁻⁶ cm/s | < 1 µM | < 100 nM |  |  |  |
| N#Cc1cc2nc(N)c3cncn3c2cc1C(=O)N1CCC[C@@H]2Oc3cc(C(F)(F)F)ccc3[C@@H]21 [Ff-346, 4-amino-8-((4aS,9bS)-7-(trifluoromethyl)-1,2,3,4,4a,9b-hexahydrobenzofuro[3,2-b]pyridine-1-carbonyl)imidazo[1,5-a]quinoxaline-7-carbonitrile] | 51 | 155 nM | 6 nM | 305 nM | 10.8 ×10⁻⁶ cm/s | 4.2 µM (≈ 2.01 µg/mL) | < 100 nM |  |  |  |
| Nc1nc2cc(Cl)c(C(=O)N3CCC[C@@H]4Oc5cc(C(F)(F)F)ccc5[C@@H]43)cc2n2cncc12 [Ff-587, (4-amino-7-chloroimidazo[1,5-a]quinoxalin-8-yl)((4aS,9bS)-7-(trifluoromethyl)-3,4,4a,9b-tetrahydrobenzofuro[3,2-b]pyridin-1(2H)-yl)methanone] | 55 | 329 nM | 5 nM | 274 nM | 7.4 ×10⁻⁶ cm/s | < 1 µM |  | < 100 nM | 0.52 | 0.06 |
| Nc1nc2cc(F)c(C(=O)N3CCO[C@@H]4Cc5cc(OC(F)F)c(F)cc5[C@@H]43)cc2n2cncc12 [Ff-174, (4-amino-7-fluoroimidazo[1,5-a]quinoxalin-8-yl)((4aS,9aR)-7-(difluoromethoxy)-6-fluoro-2,3,9,9a-tetrahydroindeno[2,1-b][1,4]oxazin-4(4aH)-yl)methanone] | 63 |  | 36 nM | 2280 nM | 17.8 ×10⁻⁶ cm/s | < 1 µM | < 100 nM |  |  |  |
| Cc1ncn2c1c(N)nc1ccc(C(=O)N3CCC[C@@H]4Oc5cc(C(F)(F)F)ccc5[C@@H]43)cc12 [Fg-31, (4-amino-3-methylimidazo[1,5-a]quinoxalin-8-yl)((4aS,9bS)-7-(trifluoromethyl)-3,4,4a,9b-tetrahydrobenzofuro[3,2-b]pyridin-1(2H)-yl)methanone] | 113 | 312 nM | 19 nM | 2140 nM | 10.3 ×10⁻⁶ cm/s | 1.6 µM (≈ 0.748 µg/mL) |  | < 100 nM | 0.76 | 0.13 |
| C[C@@H]1C[C@@H]2Oc3cc(C(F)(F)F)ccc3[C@@H]2N(C(=O)c2cc3c(cn2)nc(N)c2cncn23)C1 [Ff-252, (4-aminoimidazo[1,5-a]pyrido[3,4-e]pyrazin-8-yl)((3R,4aS,9bS)-3-methyl-7-(trifluoromethyl)-3,4,4a,9b-tetrahydrobenzofuro[3,2-b]pyridin-1(2H)-yl)methanone] | 41 | 269 nM | 13 nM | 534 nM | 13.6 ×10⁻⁶ cm/s | < 1 µM | < 100 nM |  |  |  |
